Here are results for eight compounds from patent US20060104907A1, “Biologically potent analogues of the Dmt-Tic pharmacophore and methods of use” (Government of the U.S.A., represented by the Secretary, …, priority 2004, published 2006).

Structures can show the parent of a compound that is named as a salt. Where two headings read alike, the source gives them in different places.

Data set [1] concerns the target T1, δ-opioid receptor (Homo sapiens, UniProt P41143). Conditions: δ-opioid antagonist activity, literature; cited from earlier work.
For data set [2], the target named is T1, δ-opioid receptor. Conditions: cited from earlier work.
The target of data set [3] is T2, δ-opioid receptors (Mus musculus, UniProt P32300).
T2 construct: preparations of mouse vas deferens (MVD, containing δ-opioid receptors); from tissue; host or cells: mouse vas deferens
T2 sequence (P32300 whole entry): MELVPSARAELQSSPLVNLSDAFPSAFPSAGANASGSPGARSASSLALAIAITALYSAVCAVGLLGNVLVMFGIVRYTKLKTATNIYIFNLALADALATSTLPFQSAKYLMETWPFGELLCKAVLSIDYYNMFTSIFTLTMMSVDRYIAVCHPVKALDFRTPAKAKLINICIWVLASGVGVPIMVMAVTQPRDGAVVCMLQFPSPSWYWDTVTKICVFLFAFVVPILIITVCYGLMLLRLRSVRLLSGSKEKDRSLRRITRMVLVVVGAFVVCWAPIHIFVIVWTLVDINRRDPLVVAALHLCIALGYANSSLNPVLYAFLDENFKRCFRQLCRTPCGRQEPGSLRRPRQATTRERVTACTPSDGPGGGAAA
The data set can be described thus: Functional bioactivity in mouse vas deferens (MVD), electrically-evoked twitch. In kind it is cell-based. The protocol:
(§1) Preparations of myenteric plexus-longitudinal muscle obtained from male guinea-pig ileum (GPI, enriched in μ-opioid receptors) and preparations of mouse vas deferens (MVD, containing δ-opioid receptors) were used for field stimulation with bipolar rectangular pulses of supramaximal voltage (Melchiorri et al., Eur. J. Pharm., 195: 201-207 (1991)). Agonists were evaluated for their ability to inhibit the electrically-evoked twitch. The biological potency of the compounds was compared with that of the μ-opioid receptor agonist dermorphin in GPI and with that of the δ-opioid receptor agonist deltorphin C in MVD. The results are expressed as the IC50 values obtained from dose-response curves (Prism™, GraphPad). To evaluate antagonistic properties, compounds 2 and 3 were added to the bath and allowed to interact with tissue receptor sites 5 min before adding deltorphin C. The IC50 values (nM) represent the mean of not less than six fresh tissue samples±SE. […] IC50 and pA2 values (nM) are mean ±SE of at least six experiments conducted with fresh tissues.

For data set [4], the system named is μ-opioid receptors. The data set is described as follows: Functional bioactivity in guinea-pig ileum (GPI), electrically-evoked twitch. In kind it is cell-based. Conditions: agonist activity, inhibition of electrically-evoked twitch. The protocol: as §1
The target in data set [5] is T3, μ-opioid receptors (Rattus norvegicus, UniProt P33535).
T3 construct: using rat brain synaptosomes (P2 fraction); from tissue; host or cells: rat brain synaptosomes (P2 fraction)
T3 sequence (P33535 whole entry): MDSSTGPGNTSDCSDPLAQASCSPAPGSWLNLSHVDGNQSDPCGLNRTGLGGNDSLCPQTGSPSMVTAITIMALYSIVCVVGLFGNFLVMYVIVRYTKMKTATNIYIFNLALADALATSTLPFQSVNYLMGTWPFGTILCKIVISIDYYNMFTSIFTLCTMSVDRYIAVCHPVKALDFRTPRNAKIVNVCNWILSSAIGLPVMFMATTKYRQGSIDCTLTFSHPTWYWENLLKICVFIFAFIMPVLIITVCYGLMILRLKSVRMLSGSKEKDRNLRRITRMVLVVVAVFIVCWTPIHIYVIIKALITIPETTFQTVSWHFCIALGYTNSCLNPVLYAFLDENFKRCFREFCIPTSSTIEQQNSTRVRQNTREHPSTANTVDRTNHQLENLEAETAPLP
The data set can be described thus: Competitive receptor binding assay, rat brain synaptosomes (P2 fraction), [3H]DAMGO.

The target of data set [6] is T4, δ-opioid receptors (Rattus norvegicus, UniProt P33533).
T4 construct: using rat brain synaptosomes (P2 fraction); from tissue; host or cells: rat brain synaptosomes (P2 fraction)
T4 sequence (P33533 whole entry): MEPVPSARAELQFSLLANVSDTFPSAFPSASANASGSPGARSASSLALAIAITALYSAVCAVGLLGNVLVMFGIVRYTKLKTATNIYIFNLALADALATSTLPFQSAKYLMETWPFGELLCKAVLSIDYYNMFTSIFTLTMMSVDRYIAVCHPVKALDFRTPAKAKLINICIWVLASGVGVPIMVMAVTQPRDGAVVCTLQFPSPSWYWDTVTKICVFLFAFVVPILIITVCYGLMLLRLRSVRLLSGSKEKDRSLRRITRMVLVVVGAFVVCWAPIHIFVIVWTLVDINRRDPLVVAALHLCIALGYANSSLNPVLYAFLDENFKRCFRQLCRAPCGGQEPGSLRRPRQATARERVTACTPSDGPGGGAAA
The data set is described as follows: Competitive receptor binding assay, rat brain synaptosomes (P2 fraction), [3H]DPDPE. The following applies: for fold decrease of δ-opioid receptor selectivity: compared to reference 1; for μ/δ (δ-opioid receptor selectivity): ratio Ki μ / Ki δ.

A further data set deals with T5, mouse δ-opioid receptors (Mus musculus, UniProt P32300).
T5 construct: NG108-15 (mouse N18 neuroblastoma x rat C6 glioma) cell line, which expresses mouse δ-opioid receptors; endogenous in cells; host or cells: NG108-15 (mouse N18 neuroblastoma x rat C6 glioma)
T5 sequence (P32300 whole entry): as the sequence (P32300 whole entry) above
The data set can be described thus: Confocal microscopic visualization of fluorescent probe binding in NG108-15 cells. It is filed as cell-based. The following applies: for blockage of fluorescence of probe 3 bound to δ-opioid receptors: NG108-15 cells preincubated with antagonist (naltrindole 0.2 μM, 5 min) before adding the probe. The protocol:
Visualization of δ-opioid receptor sites with the inventive fluorescent probe was obtained by incubating (15 min at 35° C.) the fluorescent tripeptide 3 (0.2 μM) with the NG108-15 (mouse N18 neuroblastoma x rat C6 glioma) cell line, which expresses mouse δ-opioid receptors. […] Localization and visualization of opioid receptor binding sites were obtained by incubating the fluorescent probe with the NG108-15 cells as shown in the left half of the fluorescent photomicrograph obtained from the confocal scanning laser microscope (FIG. 3).

Data set [7] in a line: Fluorescence emission spectra and quantum yield. In kind it is physicochemical. Conditions: Tris/HCl buffer pH 6.6, excitation 350 nm. As to the method:
Fluorescence emission spectra were recorded on a Jobin Yvon-Spex FluoroMax-2 spectrofluorometer with 1 nm spectral resolution for excitation and emission. A peptide solution at a concentration of 2×10^−5M in Tris-HCl buffer, pH 6.6, was used. The excitation wavelength was 350 nm. Fluorescence quantum yield (φ) was determined relative to quinine sulfate (Fluka) in 1 N H2SO4 (φ=0.546) as a reference (Meech et al., Journal of Photochemistry, 23: 193 (1983)). The quantum yield was calculated according to the following equation: [formula] where the subscripts S and R refer to the sample ns and reference compound, respectively; E is the integrated area under the corrected emission spectrum; A is the absorbance of the solution at the excitation wavelength. Absorbance values were kept below 0.02 to minimise inner filter and self-quenching effects. Since both the sample and the reference were in aqueous solution, the correction for the refractive index (nS/nR)^2 was considered to be of no significant relevance.

In data set [8] the target is T4, δ-opioid receptors. Conditions: rat brain synaptosomes; data taken from Balboni et al., J. Med Chem. 2004; read-out: Receptor affinity Ki^δ; cited from earlier work.
In data set [9] the target is T3, μ-opioid receptors. The following applies: rat brain synaptosomes; data taken from Balboni et al., J. Med Chem. 2004; read-out: Receptor affinity Ki^u; cited from earlier work.
The target of data set [10] is T2, δ-opioid receptors. The following applies: cited from earlier work.

T1 sequence (P41143 whole entry): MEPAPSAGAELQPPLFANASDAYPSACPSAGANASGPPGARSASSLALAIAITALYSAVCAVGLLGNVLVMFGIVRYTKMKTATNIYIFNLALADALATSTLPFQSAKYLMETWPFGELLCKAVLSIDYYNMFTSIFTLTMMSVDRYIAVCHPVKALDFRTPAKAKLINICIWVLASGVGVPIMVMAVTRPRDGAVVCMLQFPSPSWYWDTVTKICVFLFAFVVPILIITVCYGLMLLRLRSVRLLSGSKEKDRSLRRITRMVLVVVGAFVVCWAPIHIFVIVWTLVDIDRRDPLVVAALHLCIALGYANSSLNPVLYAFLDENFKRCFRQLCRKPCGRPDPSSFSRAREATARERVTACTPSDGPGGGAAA

Consider “2′,6′-dimethyl-L-tyrosine-1,2,3,4-tetrahydroisoquinoline-3-carboxylic acid [Dmt-Tic]”, for which the pA2 at δ-opioid receptor [1] is on record as 8.2. Further, the “Ki^μ/Ki^δ” value at δ-opioid receptor [2] (literature (Salvadori et al. 1995 and others)) was 150,780.
Take `Cc1cc(O)cc(C)c1C[C@H](N)C(=O)N1Cc2ccccc2C[C@H]1C(=O)N[C@@H](CCC(=O)O)C(=O)NCCCCCNC(=S)Nc1ccc(-c2c3ccc(=O)cc-3oc3cc(O)ccc23)c(C(=O)O)c1` (as salt: TFA) [Compound 3, 5-(3-{5-[2-({2-[2-amino-3-(4-hydroxy-2,6-dimethyl-phenyl)-propionyl]-1,2,3,4-tetrahydro-isoquinoline-3-carbonyl}-amino)-4-carboxy-butyrylamino]-pentyl}-thioureido)-2-(6-hydroxy-3-oxo-3H-xanten-9-yl)-benzoic acid]: the melting point lay in the range of 169 to 171 °C.
On to `Cc1cc(O)cc(C)c1C[C@H](N)C(=O)N1Cc2ccccc2C[C@H]1C(=O)N[C@@H](CCC(=O)O)C(=O)NCCCCCN` [Compound 2, H-Dmt-Tic-Glu-NH-(CH2)5—NH2], for which the melting point fell in the range of 163 to 165 °C. The compound further showed a Kb at δ-opioid receptors [3] of 1.58 nM. In addition, on δ-opioid receptors [3] (against [D-Ala2]deltorphin I dose-response curves), the MVD activity type result was “competitive antagonist”. At δ-opioid receptors [3] (antagonism of deltorphin C, Schild plot), the “MVD pA2” value was 8.8. This compound also registered an IC50 in the data set on μ-opioid receptors [4] greater than 1000 nM. For the same compound, on μ-opioid receptors [5], affinity was put at a Ki of 380 ± 65 nM. The “fold increase of μ-opioid receptor affinity” value on μ-opioid receptors [5] (compared to the reference tripeptide (1)) is reported as 3.6 fold. In addition, at δ-opioid receptors [6], the inhibitory constant (Ki) was determined as 0.22 ± 0.04 nM, the “fold decrease of δ-opioid receptor selectivity” value is 13 fold and the “μ/δ (δ-opioid receptor selectivity)” value came out at 1700. For the same compound, the “fold decrease in affinity for δ-opioid receptors” value on δ-opioid receptors [6] (compared to reference H-Dmt-Tic-Glu-NH2 (1)) is 3.7 fold.
As for `Cc1cc(O)cc(C)c1C[C@H](N)C(=O)N1Cc2ccccc2C[C@H]1C(=O)N[C@@H](CCC(=O)O)C(=O)NCCCCCNC(=S)Nc1ccc(-c2c3ccc(=O)cc-3oc3cc(O)ccc23)c(C(=O)O)c1` [Compound 3, 5-(3-{5-[2-({2-[2-amino-3-(4-hydroxy-2,6-dimethyl-phenyl)-propionyl]-1,2,3,4-tetrahydro-isoquinoline-3-carbonyl}-amino)-4-carboxy-butyrylamino]-pentyl}-thioureido)-2-(6-hydroxy-3-oxo-3H-xanten-9-yl)-benzoic acid], the values for the inhibition constant Ki at μ-opioid receptors [5] and at δ-opioid receptors [6] were 152 ± 44 nM and 0.035 ± 0.01 nM, respectively. Besides, the “fold more δ-selective than fluorescent naltrindole derivative” value on δ-opioid receptors [6] (comparator from Korlipara et al. 1997) was 857 fold; on δ-opioid receptors [6] (comparator from Kshirsagar et al. 1998), 115 fold. In addition, at δ-opioid receptors [6], the “fold decrease of δ-opioid receptor selectivity” value was 5 fold. Also, the “δ-opioid receptor binding affinity (in words)” value at δ-opioid receptors [6] (rat brain synaptosomes) is “subnanomolar”. In addition, at δ-opioid receptors [6], the “μ/δ (δ-opioid receptor selectivity)” value is 4,370. For the same compound, the “residual fluorescence after antagonist preincubation” value on mouse δ-opioid receptors (NG108-15 cells, competition with δ-opioid receptor antagonists) is on record as “ca. 10%”.
For `Oc1ccc2c3c1O[C@H]1c4[nH]c5ccccc5c4C[C@@]4(O)[C@@H](C2)N(CC2CC2)CC[C@]314` [naltrindole], the “blockage of fluorescence of probe 3 bound to δ-opioid receptors” value at mouse δ-opioid receptors is “essentially eliminated the fluorescence”; on mouse δ-opioid receptors (listed as NTI) it was “considerable blockage of the fluorescence”.
With Ac-Glu-NH(CH2)5—NH—(C═S)—NH-fluorescein, in [7], the fluorescence emission maximum worked out at 515 nm.
Take H-Dmt-Tic-Glu-NH2 [Compound 1]: the Ki was 0.06 ± 0.008 nM at δ-opioid receptors [8] and 1360 ± 268 nM on μ-opioid receptors [9]. Further, the IC50 in the data set with μ-opioid receptors [4] is greater than 1000 nM; at δ-opioid receptors [10] (agonist activity, inhibition of electrically-evoked twitch, data taken from Balboni et al. 2004, read-out: MVD (IC50)) it was 2.58 ± 0.8 nM. Also, on δ-opioid receptors [10] (Balboni et al., J. Med. Chem. 2004), the MVD activity type result was “partial δ-opioid agonist”.
Regarding H-Tyr-Tic-Phe-(Phe)-OH [TIPP], the δ-selectivity at δ-opioid receptor [2] (Arttamangkul et al., Mol. Pharmacol. 2000) is given as > 20,000.

As a reminder, the pA2 is the negative logarithm of the molar antagonist concentration that doubles the agonist concentration needed for the same response. As usually defined, the melting point is the temperature of the solid-liquid transition. The IC50 is the concentration needed to halve the response being measured. The term Ki denotes the dissociation constant of the complex between target and ligand, obtained from inhibition or displacement.
